Tested on: Zucker fa/fa rats
Assay: Chronic oral glucose tolerance test (OGTT)
Type: in vivo, rat
Description: OGTTs are performed in Zucker fa/fa rats, a rodent model of insulin resistance, after 1 and 21 days of orally administered exemplified compound at 1.0, 3.0 and 10 mg/kg. A standard GPR-40 agonist at 1 mg/kg serves as the positive control. OGTTs are performed one hour post compound administration with blood samples taken for determination of glucose and insulin levels at 10, 20, 40, 60, and 120 minutes post glucose administration. […] Weight and food consumption are not altered due to any treatment during the study.

CC#C[C@@H](CC(=O)O)c1ccc(OCc2ccc3nc(-c4c(C)cccc4C)nn3c2)cc1 [Example 1, (3S)-3-[4-[[2-(2,6-Dimethylphenyl)-[1,2,4]triazolo[1,5-a]pyridin-6-yl]methoxy]phenyl]hex-4-ynoic acid]
Weight and food consumption (21 days oral administration, any treatment): not altered | ED90 for glucose lowering (day 1, oral): 4.1 mg/kg | ED90 for glucose lowering (day 21, oral): 5.0 mg/kg | AUCs for glucose lowering (days 1 and 21, oral 1, 3 and 10 mg/kg, p<0.05): statistically significant | Insulin AUCs during the OGTTs (oral 1, 3 and 10 mg/kg, values not statistically significant): dose dependent elevation
